The text below walks through data of patent publication US8609733B2, “Sensory-specific local anesthesia and prolonged duration local anesthesia” (Massachusetts Institute of Technology, priority 2008, dated 2013).

Molecules are shown by their SMILES. Where “and” joins values, the source holds several entries; their conditions need not be identical. Equal entries are not always repeated.

Common to all, as to assay type: in vivo, Sprague-Dawley rats
The test system of test [1] is sciatic nerve. The test can be described thus: Duration of thermal nociceptive (sensory) block after sciatic nerve injection, modified hotplate test. How it is done:
(§1) Young adult male Sprague-Dawley rats (350-420 g) were obtained from Charles River Laboratories (Wilmington, Mass.) and housed in groups of two per cage on a 6 a.m. to 6 p.m. light/dark cycle. All animals were cared for in accordance with protocols approved institutionally and nationally.
(§2) QX-314 and octyltriethylammonium bromide (OTAB) (Sigma) solutions were prepared in saline individually and in combination with each enhancer the night before scheduled injections.
(§3) Animals were cared for in compliance with protocols approved by the Massachusetts Institute of Technology (MIT) Committee on Animal Care, in conformity with the NIH guidelines for the care and use of laboratory animals (NIH publication #85-23, revised 1985). Rats were anesthetized using isoflurane in oxygen. A 25-gauge needle was introduced posteromedial to the greater trochanter, and 300 μL of the QX-314+/−enhancer solution was injected upon contacting bone. To determine the effect of QX-314 on sensory and motor blockade, animals were injected with QX-314 at different concentrations. To determine the effect of the chemical penetration enhancer (OTAB) on the sensory and motor blockade produced by QX-314, animals were injected with different concentrations of OTAB, with the concentration of QX-314 kept constant at 25 mM.
(§4) In all experiments, the experimenter was blinded as to what treatment any given rat had received. Presence and extent of nerve blockade was investigated as previously described (Kohane, et al., Anesthesiology, 89:1199-1208 (1998); Padera, et al., Muscle Nerve, 34:747-53 (2006); Kohane, et al., Anesthesiology, 89:119-31 (1998); Masters, et al., Anesthesiology, 79(2):340-346 (1993)). Briefly, thermal nociception of each leg was assessed, with the right (uninjected) leg serving as an untreated control.
(§5) Thermal nociception was assessed by a modified hotplate test. Hind paws were exposed in sequence (left then right) to a 56° C. hot plate (Model 39D Hot Plate Analgesia Meter, IITC Inc., Woodland Hills, Calif.). The time (latency) until paw withdrawal was measured with a stopwatch.
(§6) The duration of thermal nociceptive block was calculated as the time required for thermal latency to return to a value of 7 seconds from a higher value. Seven seconds is the midpoint between a baseline thermal latency of approximately 2 seconds in adult rats and a Maximal latency of 12 seconds. Latencies greater than 7 sec were considered to be effective blocks.
(§7) Methods were as described in Example 1.
(§8) To establish that the selective block could be obtained with other local anesthetics, the methods of example 1 were performed using 100 mM QX-222 and 30 mM OTAB, and compared to the results obtained using 100 mM […] and 30 mM OTAB.

For test [2], the system named is sciatic nerve. The test can be described thus: Sensory selectivity of sciatic nerve blockade (thermal nociceptive versus motor block). Particulars: for selective thermal nociceptive blockade as compared to motor blockade: in combination with OTAB (Example 3: 100 mM QX-222, 30 mM OTAB). How it is done: as §3, §4, §5, §6
(§9) The rat was held with its posterior placed at a digital balance on which it could bear weight with one hindpaw at a time. The maximum weight that the rat could bear without its ankle touching the balance was measured.
as §7, §8

Test [3] concerns sciatic nerve. As to the kind of experiment: Duration of motor block after sciatic nerve injection, extensor postural thrust (EPT). How it is done:
as §1, §2, §3, §4, §9, §7, §8

Setting [4] is: 25 mM QX-314 co-injected with 5 mM SOS.
[5] abbreviates: 25 mM QX-314 co-injected with 10 mM SOS.
The mark [6] stands for this setting: 25 mM QX-314 co-injected with 0.5% TWEEN 20.
[7] abbreviates: QX-314 without CPE, different concentrations, 300 μl.

For `CC[N+](CC)(CC)CC(=O)Nc1c(C)cccc1C` [QX-314, N-(2,6)dimethylphenylcarbamoylmethyl triethylammonium bromide], the sensory block with sciatic nerve [1] (setting [4]) turned out to be 235 min; in the test with sciatic nerve [1] (setting [5]), 870 min. The “sensory DEB (duration of effective block)” value in the test with sciatic nerve [1] (25 mM QX-314 co-injected with 20 mM OTAB) was 428 min and 406 min. Besides, the “duration of sensory block” value in the test on sciatic nerve [1] (25 mM QX-314 co-injected with 30 mM OTAB) is listed as 450 min. In the test with sciatic nerve [1] (setting [6]), the median sensory blockade is 269 min. Also, the “sensory duration of block versus concentration” value in the test on sciatic nerve [1] (setting [7]) is “concentration-dependent increase”. Further, the sensory selectivity entry in the test on sciatic nerve [2] (25 mM QX-314 co-injected with SOS 5, 10, 20, 30 mM) is recorded as “sensory selectivity at all concentrations of SOS”. The sensory specificity entry with sciatic nerve [2] (25 mM QX-314 with higher OTAB concentrations (>30 mM)) is given as “no sensory specificity”. For the same compound, the specificity of block result with sciatic nerve [2] (25 mM QX-314 with higher SOS concentrations (10-30 mM)) is on record as “initially non-specific”. Moreover, the “sensory versus motor block duration” value in the test on sciatic nerve [2] (25 mM QX-314 with lower concentrations of OTAB (10-30 mM)) was “significant increase in sensory block duration, without a corresponding increase in motor block duration”. Besides, the modality specificity result in the test on sciatic nerve [2] (QX-314 in the absence of a CPE) is listed as “no evidence of modality specificity”. Also, the “TWEEN 20 concentration of maximum sensory specificity (optimal)” value in the test on sciatic nerve [2] (co-injected with 25 mM QX-314) turned out to be 0.5%. Further, the “selective thermal nociceptive blockade as compared to motor blockade” value in the test with sciatic nerve [2] was “Comparable selective thermal nociceptive blockade”. In addition, the “SOS concentration range with sensory selectivity” value in the test with sciatic nerve [2] (with 25 mM QX-314) fell in the range of 1 to 50 mM. The “optimal OTAB concentration for sensory selectivity” value in the test on sciatic nerve [2] (with 25 mM QX-314) is 20 mM. Besides, in the test with sciatic nerve [3] (25 mM QX-314 alone, 300 μL at the sciatic nerve, rat), the “duration of motor block” value was 165 min. The motor block is 0 min with sciatic nerve [3] (setting [4]) and 532 min in the test with sciatic nerve [3] (setting [5]). Besides, in the test on sciatic nerve [3] (25 mM QX-314 co-injected with 20 mM or 30 mM OTAB), the motor effect result is “little or no motor effect”. Moreover, in the test on sciatic nerve [3] (setting [6]), the median motor blockade was found to be 0 min. The “motor duration of block versus concentration” value in the test with sciatic nerve [3] (setting [7]) is “concentration-dependent increase”.
`Cc1cccc(C)c1NC(=O)C[N+](C)(C)C` [QX-222, 2-((2,6-dimethylphenyl)amino)-N,N,N-trimethyl-2-oxoethanaminium]: the “selective thermal nociceptive blockade as compared to motor blockade” value with sciatic nerve [2] was “Comparable selective thermal nociceptive blockade”.
